From PubChem BioAssay AID1259407 (Chemical Carcinogenesis Research Information System (CCRIS), 2018)
Calls of active or inactive are those of the source. No rule for the calls is given here.

System: CCRIS mutagenicity, Ames/micronucleus/aberration tests
Assay: CCRIS mutagenicity studies
[1] = Test System: AMES SALMONELLA TYPHIMURIUM, Strain/Indicator: TA98, Metabolic Activation: NONE, Method: STANDARD PLATE
[2] = Test System: AMES SALMONELLA TYPHIMURIUM, Strain/Indicator: TA98, Metabolic Activation: RAT, LIVER, S-9, AROCLOR 1254, Method: STANDARD PLATE
[3] = Test System: AMES SALMONELLA TYPHIMURIUM, Strain/Indicator: TA100, Metabolic Activation: RAT, LIVER, S-9, AROCLOR 1254, Method: STANDARD PLATE
[4] = Test System: AMES SALMONELLA TYPHIMURIUM, Strain/Indicator: TA1538, Metabolic Activation: NONE, Method: STANDARD PLATE
[5] = Test System: AMES SALMONELLA TYPHIMURIUM, Strain/Indicator: TA1538, Metabolic Activation: RAT, LIVER, S-9, AROCLOR 1254, Method: STANDARD PLATE
[6] = Test System: MOUSE LYMPHOMA, Strain/Indicator: L5178Y (TK+/TK-), Metabolic Activation: NONE, Method: SUSPENSION/PLATE

Nc1ccc(S(N)(=O)=O)cc1
mutagenic call (End Point: IN VITRO CHROMOSOMAL ABERRATIONS, Test System: CHINESE HAMSTER OVARY CELLS, Metabolic Activation: NONE): inactive; negative | mutagenic call (End Point: IN VITRO CHROMOSOMAL ABERRATIONS, Test System: CHINESE HAMSTER OVARY CELLS, Metabolic Activation: RAT, LIVER, S-9, AROCLOR 1254): inactive; negative | mutagenic call (Test System: AMES SALMONELLA TYPHIMURIUM, Strain/Indicator: TA98, Metabolic Activation: HAMSTER, LIVER, S-9, AROCLOR 1254, Method: STANDARD PLATE): inactive; negative | mutagenic call [1]: inactive; negative | mutagenic call [2]: inactive; negative | mutagenic call (Test System: AMES SALMONELLA TYPHIMURIUM, Strain/Indicator: TA100, Metabolic Activation: HAMSTER, LIVER, S-9, AROCLOR 1254, Method: STANDARD PLATE): inactive; negative | mutagenic call (Test System: AMES SALMONELLA TYPHIMURIUM, Strain/Indicator: TA100, Metabolic Activation: NONE, Method: STANDARD PLATE): inactive; negative | mutagenic call [3]: inactive; negative | mutagenic call (Test System: AMES SALMONELLA TYPHIMURIUM, Strain/Indicator: TA1535, Metabolic Activation: HAMSTER, LIVER, S-9, AROCLOR 1254, Method: STANDARD PLATE): inactive; negative | mutagenic call (Test System: AMES SALMONELLA TYPHIMURIUM, Strain/Indicator: TA1535, Metabolic Activation: NONE, Method: STANDARD PLATE): inactive; negative | mutagenic call (Test System: AMES SALMONELLA TYPHIMURIUM, Strain/Indicator: TA1535, Metabolic Activation: RAT, LIVER, S-9, AROCLOR 1254, Method: STANDARD PLATE): inactive; negative | mutagenic call (Test System: AMES SALMONELLA TYPHIMURIUM, Strain/Indicator: TA1537, Metabolic Activation: HAMSTER, LIVER, S-9, AROCLOR 1254, Method: STANDARD PLATE): inactive; negative | mutagenic call (Test System: AMES SALMONELLA TYPHIMURIUM, Strain/Indicator: TA1537, Metabolic Activation: NONE, Method: STANDARD PLATE): inactive; negative | mutagenic call (Test System: AMES SALMONELLA TYPHIMURIUM, Strain/Indicator: TA1537, Metabolic Activation: RAT, LIVER, S-9, AROCLOR 1254, Method: STANDARD PLATE): inactive; negative | mutagenic call (Test System: AMES SALMONELLA TYPHIMURIUM, Strain/Indicator: TA1538, Metabolic Activation: HAMSTER, LIVER, S-9, AROCLOR 1254, Method: STANDARD PLATE): inactive; negative | mutagenic call [4]: inactive; negative | mutagenic call [5]: inactive; negative | mutagenic call [6]: inactive; negative | mutagenic call (Test System: MOUSE LYMPHOMA, Strain/Indicator: L5178Y (TK+/TK-), Metabolic Activation: RAT, LIVER, S-9, AROCLOR 1254, Method: SUSPENSION/PLATE): inactive; negative | mutagenic call (Test System: Mouse lymphoma, Strain/Indicator: L5178Y (tk+/tk-), Metabolic Activation: None, Method: Suspension/plate): inactive; negative | mutagenic call (Test System: Mouse lymphoma, Strain/Indicator: L5178Y (tk+/tk-), Metabolic Activation: Rat, Liver, S-9, Aroclor 1254, Method: Suspension/plate): inactive; negative

COC(=O)Nc1nc2ccc(S(=O)c3ccccc3)cc2[nH]1 (configuration not stated)
mutagenic call (End Point: In vivo chromosomal aberrations, Test System: Bone marrow cells, Species: Mouse, Strain/Sex: Swiss /Female, Route: Oral): active; positive (structural changes and ploidy) | mutagenic call (End Point: In vivo chromosomal aberrations, Test System: Bone marrow cells, Species: Mouse, Strain/Sex: Swiss /Male, Route: Oral): active; positive (structural changes and ploidy) | mutagenic call (End Point: In vivo chromosomal aberrations, Test System: Spermatocytes, Species: Mouse, Strain/Sex: Swiss /Male, Route: Oral): active; positive (ploidy)

Cn1cnc2ccc([N+](=O)[O-])cc21
mutagenic call [1]: active; positive

[Cl][Hg][Cl]
mutagenic call (End Point: IN VITRO MICRONUCLEUS, Test System: CHINESE HAMSTER V79 CELLS, Metabolic Activation: NONE): active; positive | mutagenic call (End Point: IN VITRO MICRONUCLEUS, Test System: CHL/IU CELLS, Metabolic Activation: NONE): inactive; negative | mutagenic call (End Point: IN VITRO MICRONUCLEUS, Test System: HUMAN PERIPHERAL LYMPHOCYTES, Metabolic Activation: NONE): active; positive | mutagenic call (End Point: IN VIVO MICRONUCLEUS, Test System: RETICULOCYTES, Species: RAT, Strain/Sex: WISTAR/FEMALE, Route: ORAL (GAVAGE)): active; positive | mutagenic call (Test System: AMES SALMONELLA TYPHIMURIUM, Strain/Indicator: TA98, Metabolic Activation: HAMSTER, LIVER, S-9, AROCLOR 1254 (10%), Method: PREINCUBATION): inactive; negative | mutagenic call (Test System: AMES SALMONELLA TYPHIMURIUM, Strain/Indicator: TA98, Metabolic Activation: NONE, Method: PREINCUBATION): inactive; negative | mutagenic call (Test System: AMES SALMONELLA TYPHIMURIUM, Strain/Indicator: TA98, Metabolic Activation: RAT, LIVER, S-9, AROCLOR 1254 (10%), Method: PREINCUBATION): inactive; negative | mutagenic call (Test System: AMES SALMONELLA TYPHIMURIUM, Strain/Indicator: TA100, Metabolic Activation: HAMSTER, LIVER, S-9, AROCLOR 1254 (10%), Method: PREINCUBATION): inactive; negative | mutagenic call (Test System: AMES SALMONELLA TYPHIMURIUM, Strain/Indicator: TA100, Metabolic Activation: NONE, Method: PREINCUBATION): inactive; negative | mutagenic call (Test System: AMES SALMONELLA TYPHIMURIUM, Strain/Indicator: TA100, Metabolic Activation: RAT, LIVER, S-9, AROCLOR 1254 (10%), Method: PREINCUBATION): inactive; negative | mutagenic call (Test System: AMES SALMONELLA TYPHIMURIUM, Strain/Indicator: TA102, Metabolic Activation: NONE, Method: STANDARD PLATE): inactive; negative | mutagenic call (Test System: AMES SALMONELLA TYPHIMURIUM, Strain/Indicator: TA1535, Metabolic Activation: HAMSTER, LIVER, S-9, AROCLOR 1254 (10%), Method: PREINCUBATION): inactive; negative | mutagenic call (Test System: AMES SALMONELLA TYPHIMURIUM, Strain/Indicator: TA1535, Metabolic Activation: NONE, Method: PREINCUBATION): inactive; negative | mutagenic call (Test System: AMES SALMONELLA TYPHIMURIUM, Strain/Indicator: TA1535, Metabolic Activation: RAT, LIVER, S-9, AROCLOR 1254 (10%), Method: PREINCUBATION): inactive; negative | mutagenic call (Test System: AMES SALMONELLA TYPHIMURIUM, Strain/Indicator: TA1537, Metabolic Activation: HAMSTER, LIVER, S-9, AROCLOR 1254 (10%), Method: PREINCUBATION): inactive; negative | mutagenic call (Test System: AMES SALMONELLA TYPHIMURIUM, Strain/Indicator: TA1537, Metabolic Activation: NONE, Method: PREINCUBATION): inactive; negative | mutagenic call (Test System: AMES SALMONELLA TYPHIMURIUM, Strain/Indicator: TA1537, Metabolic Activation: RAT, LIVER, S-9, AROCLOR 1254 (10%), Method: PREINCUBATION): inactive; negative | mutagenic call (Test System: E. COLI, Strain/Indicator: WP2 UVRA, Metabolic Activation: NONE, Method: SPOT TEST): inactive; negative | mutagenic call (Test System: HUMAN BLOOD LYMPHOCYTES, Strain/Indicator: HUMAN BLOOD LYMPHOCYTES (HPRT)/6-THIOGUANINE, Metabolic Activation: NONE, Method: SUSPENSION/PLATE): active; positive | mutagenic call [6]: active; positive

CC1=CC(=C(C#N)C#N)C=C(C=Cc2ccc(N(C)C)cc2)O1
mutagenic call (Test System: AMES SALMONELLA TYPHIMURIUM, Strain/Indicator: TA96, Metabolic Activation: RAT, LIVER, S-9, AROCLOR 1254, Method: STANDARD PLATE): active; positive | mutagenic call (Test System: AMES SALMONELLA TYPHIMURIUM, Strain/Indicator: TA97, Metabolic Activation: RAT, LIVER, S-9, AROCLOR 1254, Method: STANDARD PLATE): active; positive | mutagenic call [2]: active; positive | mutagenic call [3]: active; positive | mutagenic call (Test System: AMES SALMONELLA TYPHIMURIUM, Strain/Indicator: TA102, Metabolic Activation: RAT, LIVER, S-9, AROCLOR 1254, Method: STANDARD PLATE): active; positive | mutagenic call (Test System: AMES SALMONELLA TYPHIMURIUM, Strain/Indicator: TA104, Metabolic Activation: RAT, LIVER, S-9, AROCLOR 1254, Method: STANDARD PLATE): active; positive | mutagenic call [4]: inactive; negative | mutagenic call (Test System: AMES SALMONELLA TYPHIMURIUM, Strain/Indicator: TA1538, Metabolic Activation: RAT, LIVER, MICROSOMES, 3-METHYLCHOLANTHRENE, Method: STANDARD PLATE): active; positive | mutagenic call (Test System: AMES SALMONELLA TYPHIMURIUM, Strain/Indicator: TA1538, Metabolic Activation: RAT, LIVER, MICROSOMES, AROCLOR 1254, Method: STANDARD PLATE): active; positive | mutagenic call (Test System: AMES SALMONELLA TYPHIMURIUM, Strain/Indicator: TA1538, Metabolic Activation: RAT, LIVER, MICROSOMES, PHENOBARBITAL, Method: STANDARD PLATE): active; positive | mutagenic call (Test System: AMES SALMONELLA TYPHIMURIUM, Strain/Indicator: TA1538, Metabolic Activation: RAT, LIVER, MICROSOMES, Method: STANDARD PLATE): active; positive | mutagenic call [5]: active; positive
